Non-standard residues stand in square brackets, D forms with d. Residues, ends and D or L forms follow the SMILES beside them.
How the values were obtained:
Rpn13 = conditions: peptide derived from Rpn2; cited from earlier work
[1] = biological target: T1, Rpn2-binding surface of Rpn13 (GST-Rpn13 PRU) (Homo sapiens, UniProt Q16186); assay: Competition assay with Rpn2 peptide for GST-Rpn13 PRU fusion protein; conditions: protein preincubated with Rpn2 peptide 100 μM
T1 construct: the human Rpn13 PRU (pleckstrin-like receptor for ubiquitin) domain is linked to the C-terminus of GST; His6 (C); made in house; host or cells: E. coli BL21 (DE3) codon plus RP
T1 sequence (Q16186 18-131 limits assumed): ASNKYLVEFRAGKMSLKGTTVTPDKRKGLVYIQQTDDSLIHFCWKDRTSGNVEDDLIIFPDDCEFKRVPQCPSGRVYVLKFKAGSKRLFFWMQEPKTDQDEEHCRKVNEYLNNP
Method: As mentioned above, the Rpn13 PRU domain binds to the proteasome via association with a C-terminal peptide tail from Rpn2. […] The amount of protein retained on the resin was then evaluated using the same protocol described above.
This assay was conducted following the exact same procedure described above using two samples: GST-Rpn13 PRU (100 nM) alone, and GST-Rpn13 PRU (100 nM) that had been pretreated with Rpn2 peptide (100 μM) for 1 h at 4 °C. Each sample was added to separate wells of a microtiter plate.

In the case of `CC[C@H](C)[C@H](NC(=O)[C@H](Cc1ccc(O)cc1)NC(=O)[C@@H](CCC(=O)O)NC(=O)[C@H](Cc1ccccc1)NC(=O)[C@@H]1CCCN1C(=O)[C@H](CCC(=O)O)NC(=O)[C@@H]1CCCN1C(=O)[C@@H]1CCCN1C(=O)[C@H](CCC(=O)O)NC(=O)[C@@H]1CCCN1C(=O)[C@@H](CCC(=O)O)NC(=O)[C@H](CCC(N)=O)NC(=O)[C@@H]1CCCN1)C(=O)N[C@@H](CC(=O)O)C(N)=O` [Rpn2 peptide, reference compound] (H-PQ[dE]PEPPEPF[dE]YID-NH2), the “affinity for Rpn13” value (Rpn13) is listed as “nanomolar affinity” and the “effect of soluble Rpn2 peptide competitor on binding of GST-Rpn13 PRU” value [1] is listed as “strongly suppressed binding”.

— PMC12598851, “Exploiting Avidity Effects for the Discovery of Low Affinity Protein-Binding Fragments” (Journal of Medicinal Chemistry, 2025)
